Assay [1] has as its system T-Rex 293 cell line SC3 cells having increased expression of androgen receptor protein due to exposure to doxycycline. Put plainly: Cellular growth inhibition, T-Rex 293 SC3 cells with doxycycline-induced androgen receptor (CellTiter-Glo 2.0, 72 hours). The format is cell-based. As to conditions: T-Rex 293 SC3 cells with 10 ng/ml doxycycline (increased androgen receptor expression), 72 hours, CellTiter-Glo 2.0. The method, then:
(§1) Ability of the test compounds to inhibit proliferation of the foregoing cell types was evaluated according to the procedures set forth below.
(§2) The doxycycline-inducible androgen receptor protein expressing cell line was established using the following protocol: T-Rex 293 cells were purchased from Invitrogen (Cat #R71007) and transfected using Lipofectamine 2000 with the wild-type androgen receptor protein sequence cloned into the pcDNA4/TO vector. Transfected cells were selected using 400 μg/mL Zeocin (Invitrogen Cat #R25001). Following selection, single clones were raised and maintained in Dulbecco's Modified Eagle Medium (DMEM) supplemented with 10% w/w Tetracycline-free fetal bovine serum (FBS) and 250 μg/mL Zeocin. Clones were analyzed for expression of androgen receptor protein in the presence and absence of 10 ng/ml doxycycline (Sigma Cat #D9891), and a single doxycycline-inducible clone (hereinafter “SC3”) was selected for use in downstream assays.
(§3) The SC3 cells were seeded on poly-D-lysine coated, black clear-bottom 384-well plates at 2500/well, in 25 μL Phenol Red Free Dulbecco's Modified Eagle Medium (DMEM) supplemented with 10% w/w charcoal-dextran treated fetal bovine serum (FBS) and 1% w/w pen-strep, with or without 10 ng/ml doxycycline. Pen-Strep is a commercially available mixture of penicillin G and streptomycin, which is used in mammalian cell culture media to prevent bacterial contamination. Phenol Red Free Dulbecco's Modified Eagle Medium (DMEM) supplemented with 10% w/w charcoal-dextran treated fetal bovine serum (FBS) and 1% w/w pen-strep, with or without 10 ng/mL doxycycline is herein referred to as Treatment Medium. Following seeding of cells in the plates, the plates were spun at 300×g for 30 seconds, then equilibrated to room temperature for 30 minutes, and then deposited in a humidified tissue culture incubator maintained at 37° C. with 5% CO2.
(§4) At 24 hours after seeding of the cells, dilutions of test compound were prepared in DMSO and dissolved in Treatment Medium, to achieve a final DMSO concentration of 0.5% w/w, thereby providing the Test Compound Solution. A 25 μL aliquot of the Test Compound Solution was added to cells in the well plates. An equal volume of a solution containing DMSO and Treatment Medium was used as a negative control. Following treatment of cells with Test Compound Solution or said equal volume of a solution containing DMSO and Treatment Medium, the plates were spun at 300×g for 30 seconds, and then left in an incubator for 72 hours.
(§5) At the end of the treatment duration, cell viability was quantified with CellTiter-Glo 2.0 reagent (Promega Cat #G9243). For this purpose, plates were equilibrated to room temperature for 30 minutes, and then 25 μL of CellTiter-Glo 2.0 reagent was added to cells in the plate wells. Plates were then agitated on a shaker for two minutes at 500 rpm and subsequently incubated at room temperature for 10 minutes. Following incubation, the plates were spun at 3000×g for 30 seconds, then sealed with an optical adhesive cover, and luminescence readings were measured with an En Vision Plate Reader.
(§6) Data was normalized using zero luminescence for baseline. A four-parameter non-linear regression curve fit was applied to dose-response data in GraphPad Prism data analysis software to determine the half-maximal growth inhibitory concentration (GI50) for each test compound.

Assay [2] concerns T-Rex 293 cell line SC3 cells lacking increased expression of androgen receptor protein. Put plainly: Cellular growth inhibition, T-Rex 293 SC3 cells without doxycycline (CellTiter-Glo 2.0, 72 hours). The note with it: T-Rex 293 SC3 cells not exposed to doxycycline (no increased androgen receptor expression). It is filed as cell-based. As to the method: as §1, §2, §3, §4, §5, §6
For orientation: Cellular ATP, detected with luciferase, serves as a proxy for viable cell number.

The test system of the next assay is VCaP cells. Put plainly: Cellular growth inhibition assay for VCaP cells (CellTiter-Glo 2.0, 72 hours). The format is cell-based, human. As to conditions: CellTiter-Glo 2.0. The method, then: Exemplary compounds were tested for ability to inhibit the proliferation of VCaP cells. VCap cells are a commercially available human prostate cancer cell line.
VCaP cells were purchased from American Type Cell Culture (ATCC Cat #CRL2876) and then seeded on poly-D-lysine coated, black clear-bottom 384-well plates at 5000/well in 25 μL Dulbecco's Modified Eagle Medium (DMEM) supplemented with 10% w/w Fetal bovine serum (FBS) and 1% w/w Pen-Strep. Pen-Strep is a commercially available mixture of penicillin G and streptomycin, which is used in mammalian cell culture media to prevent bacterial contamination. Dulbecco's Modified Eagle Medium (DMEM) supplemented with 10% w/w fetal bovine serum (FBS) and 1% w/w Pen-Strep is herein referred to as Treatment Medium. Following seeding of cells in the plates, the plates were spun at 300×g for 30 seconds, then equilibrated to room temperature for 30 minutes, and then deposited in a humidified tissue culture incubator maintained at 37° C. with 5% CO2.
as §4, §5, §6

GI50 data for eleven compounds are collected here from patent US12668599B2, “Heterobifunctional compounds and methods of treating disease” (Halda Therapeutics OpCo, Inc., priority 2023, dated 2026).

One may read the GI50 as the concentration that inhibits growth by half. Read a high GI50 as less potent growth inhibition.

On to `COc1cc(O[C@H]2CC[C@H](NC(=O)c3ccc(N4CCC5(CCN(c6ccc(C7=NC(Cc8ncco8)c8nnc(C)n8-c8sc(C)c(C)c87)cc6F)CC5)C4)nn3)CC2)ccc1C#N` (single isomer, unassigned) [Compound I-134], for which the figures for the 50% growth inhibitory concentration (GI50) (in assay [1]; in assay [2]; with VCaP cells (72 hours)) were less than 500 nM, more than 3000 nM and more than 3000 nM, respectively.
`COc1cc(O[C@H]2CC[C@H](NC(=O)c3ccc(N4CCC5(CCN(c6ccc(C7=NC(Cc8ncco8)c8nnc(C)n8-c8sc(C)c(C)c87)cc6F)CC5)C4)nn3)CC2)ccc1C#N` (single isomer, unassigned) [Compound I-135]: the GI50 (in assay [1]; in assay [2]; in the assay with VCaP cells (72 hours)) was less than 500 nM each time.
As for `COC[C@@H]1N=C(c2ccc(C3CCC4(CC3)CCN(c3ccc(C(=O)NC5CCC(Oc6ccc(C#N)c(OC(F)(F)F)c6)CC5)nn3)C4)cc2)c2c(sc(C)c2C)-n2c(C)nnc21` (stereo partly drawn) [Compound I-2, N-[4-[4-cyano-3-(trifluoromethoxy)phenoxy]cyclohexyl]-6-[8-[4-[(9R)-9-(methoxymethyl)-4,5,13-trimethyl-3-thia-1,8,11,12-tetrazatricyclo[8.3.0.0^2,6]trideca-2 (6),4,7,10,12-pentaen-7-yl]phenyl]-2-azaspiro[4.5]decan-2-yl]pyridazine-3-carboxamide], the GI50 was less than 500 nM in assay [1]; less than 500 nM in assay [2] (72 h); less than 500 nM in the assay with VCaP cells (Homo sapiens, VCaP, 72 h).
Take `COCC[C@@H]1N=C(c2ccc(C3CCC4(CC3)CCN(c3ccc(C(=O)NC5CCC(Oc6ccc(C#N)c(OC(F)(F)F)c6)CC5)nn3)C4)cc2)c2c(sc(C)c2C)-n2c(C)nnc21` (stereo partly drawn) [Compound I-4, N-[4-[4-cyano-3-(trifluoromethoxy)phenoxy]cyclohexyl]-6-[8-[4-[(9S)-9-(2-methoxyethyl)-4,5,13-trimethyl-3-thia-1,8,11,12-tetrazatricyclo[8.3.0.0^2,6]trideca-2 (6),4,7,10,12-pentaen-7-yl]phenyl]-2-azaspiro[4.5]decan-2-yl]pyridazine-3-carboxamide]: the GI50 in assay [1] is less than 500 nM; in assay [2] (72 h) it was 1500 to 3000 nM; in the assay with VCaP cells (Homo sapiens, VCaP, 72 h), less than 500 nM.
Take `CC[C@@H]1N=C(c2ccc(C#CC3CC4(C3)CN(c3ccc(C(=O)N[C@H]5CC[C@H](Oc6ccc(C#N)c(OC(F)(F)F)c6)CC5)nn3)C4)cc2)c2c(sc(C)c2C)-n2c(C)nnc21` [Compound I-6, N-[4-[4-cyano-3-(trifluoromethoxy)phenoxy]cyclohexyl]-6-[6-[2-[4-[(9S)-9-ethyl-4,5,13-trimethyl-3-thia-1,8,11,12-tetrazatricyclo[8.3.0.0^2,6]trideca-2 (6),4,7,10,12-pentaen-7-yl]phenyl]ethynyl]-2-azaspiro[3.3]heptan-2-yl]pyridazine-3-carboxamide]: the GI50 was less than 500 nM in assay [1]; less than 500 nM in assay [2] (72 h); less than 500 nM in the assay on VCaP cells (Homo sapiens, VCaP, 72 h).
Turning to `Cc1sc2c(c1C)C(c1ccc(C#CC3CC4(C3)CN(c3ccc(C(=O)N[C@H]5CC[C@H](Oc6ccc(C#N)c(OC(F)(F)F)c6)CC5)nn3)C4)cc1)=NC1(CC1)c1nnc(C)n1-2` [Compound I-7, N-[4-[4-cyano-3-(trifluoromethoxy)phenoxy]cyclohexyl]-6-[6-[2-[4-(4,5,13-trimethylspiro[3-thia-1,8,11,12-tetrazatricyclo[8.3.0.0^2,6]trideca-2 (6),4,7,10,12-pentaene-9,1′-cyclopropane]-7-yl)phenyl]ethynyl]-2-azaspiro[3.3]heptan-2-yl]pyridazine-3-carboxamide], the GI50 in assay [1] was less than 500 nM; in assay [2] (72 h), less than 500 nM; with VCaP cells (Homo sapiens, VCaP, 72 h) it was less than 500 nM.
Take `COC[C@@H]1N=C(c2ccc(C#CC3CC4(C3)CN(c3ccc(C(=O)N[C@H]5CC[C@H](Oc6ccc(C#N)c(OC(F)(F)F)c6)CC5)nn3)C4)cc2)c2c(sc(C)c2C)-n2c(C)nnc21` [Compound I-8, N-[4-[4-cyano-3-(trifluoromethoxy)phenoxy]cyclohexyl]-6-[6-[2-[4-[(9R)-9-(methoxymethyl)-4,5,13-trimethyl-3-thia-1,8,11,12-tetrazatricyclo[8.3.0.0^2,6]trideca-2 (6),4,7,10,12-pentaen-7-yl]phenyl]ethynyl]-2-azaspiro[3.3]heptan-2-yl]pyridazine-3-carboxamide]: the GI50 is less than 500 nM in assay [1]; less than 500 nM in assay [2] (72 h); less than 500 nM in the assay on VCaP cells (Homo sapiens, VCaP, 72 h).
In the case of `COCC[C@@H]1N=C(c2ccc(C#CC3CC4(C3)CN(c3ccc(C(=O)N[C@H]5CC[C@H](Oc6ccc(C#N)c(OC(F)(F)F)c6)CC5)nn3)C4)cc2)c2c(sc(C)c2C)-n2c(C)nnc21` [Compound I-9, N-[4-[4-cyano-3-(trifluoromethoxy)phenoxy]cyclohexyl]-6-[6-[2-[4-[(9S)-9-(2-methoxyethyl)-4,5,13-trimethyl-3-thia-1,8,11,12-tetrazatricyclo[8.3.0.0^2,6]trideca-2 (6),4,7,10,12-pentaen-7-yl]phenyl]ethynyl]-2-azaspiro[3.3]heptan-2-yl]pyridazine-3-carboxamide], the GI50 is less than 500 nM in assay [1]; less than 500 nM in assay [2] (72 h); less than 500 nM in the assay with VCaP cells (Homo sapiens, VCaP, 72 h).
Regarding `Cc1sc2c(c1C)C(c1ccc(C#CC3CC4(C3)CN(c3ccc(C(=O)N[C@H]5CC[C@H](Oc6ccc(C#N)c(OC(F)(F)F)c6)CC5)nn3)C4)cc1)=N[C@@H](C)c1nnc(C)n1-2` [Compound I-12, N-[4-[4-cyano-3-(trifluoromethoxy)phenoxy]cyclohexyl]-6-[6-[2-[4-[(9S)-4,5,9,13-tetramethyl-3-thia-1,8,11,12-tetrazatricyclo[8.3.0.0^2,6]trideca-2 (6),4,7,10,12-pentaen-7-yl]phenyl]ethynyl]-2-azaspiro[3.3]heptan-2-yl]pyridazine-3-carboxamide], the GI50 in assay [1] was less than 500 nM; in assay [2] (72 h), less than 500 nM; with VCaP cells (Homo sapiens, VCaP, 72 h) it was less than 500 nM.
Consider `CC[C@@H]1N=C(c2ccc(C3CCC4(CC3)CCN(c3ccc(C(=O)NC5CCC(Oc6ccc(C#N)c(OC(F)(F)F)c6)CC5)nn3)C4)cc2)c2c(sc(C)c2C)-n2c(C)nnc21` (stereo partly drawn) [Compound I-13, N-((1r,4r)-4-(4-cyano-3-(trifluoromethoxy)phenoxy)cyclohexyl)-6-(8-(4-((S)-6-ethyl-2,3,9-trimethyl-6H-thieno[3,2-f][1,2,4]triazolo[4,3-a][1,4]diazepin-4-yl)phenyl)-2-azaspiro[4.5]decan-2-yl) pyridazine-3-carboxamide], for which the GI50 (in assay [1]; in assay [2]; with VCaP cells (72 hours)) was less than 500 nM each time.
For `Cc1sc2c(c1C)C(c1ccc(OC3CC4(CCN(c5ccc(C(=O)NC6CCC(Oc7ccc(C#N)c(OC(F)(F)F)c7)CC6)nn5)CC4)C3)cc1)=N[C@@H](Cc1ncco1)c1nnc(C)n1-2` (stereo partly drawn) [Compound I-16, N-[4-[4-cyano-3-(trifluoromethoxy)phenoxy]cyclohexyl]-6-[2-[4-[(9S)-4,5,13-trimethyl-9-(oxazol-2-ylmethyl)-3-thia-1,8,11,12-tetrazatricyclo[8.3.0.0^2,6]trideca-2 (6),4,7,10,12-pentaen-7-yl]phenoxy]-7-azaspiro[3.5]nonan-7-yl]pyridazine-3-carboxamide], the GI50 in assay [1] is less than 500 nM; in assay [2] (72 h) it was less than 500 nM; in the assay on VCaP cells (Homo sapiens, VCaP, 72 h) it was less than 500 nM.
